Assay results: publication PMC5207512, “Inhibition of Helicobacter pylori and Its Associated Urease by Palmatine: Investigation on the Potential Mechanism” (PLoS ONE, 2017)
Several values for one entry are separate records, joined by “and”; a condition that tells them apart may be missing. Equal values may be shown once.

Biological target: T1, jack bean urease (JBU) (Canavalia ensiformis, UniProt P07374)
T1 construct: Urease from jack bean (Canavalia ensiformis, JBU); purchased Sigma-Aldrich (St Louis, MO, USA) type III (catalogue number not given)
Test: Inhibition kinetic study (Lineweaver-Burk plots)
Type: biochemical
Conditions: for Lineweaver-Burk plot raw value (reciprocal velocity): Fig 3B JBU
Method: Michaelis constant KM and the maximum velocity vmax values were evaluated by means of Lineweaver—Burk plots, using the initial velocities at different urea concentrations (ranging from 0.3125 to 15 mM), in the absence or presence of 1.00, 0.50, and 0.25 mM Pal. The concentrations of HPU and JBU were both 0.25 mg/mL in the assays. The values were obtained by applying nonlinear regression to the Michaelis-Menten equation. All experiments were performed in triplicate.

T1 sequence (P07374 whole entry, looked up): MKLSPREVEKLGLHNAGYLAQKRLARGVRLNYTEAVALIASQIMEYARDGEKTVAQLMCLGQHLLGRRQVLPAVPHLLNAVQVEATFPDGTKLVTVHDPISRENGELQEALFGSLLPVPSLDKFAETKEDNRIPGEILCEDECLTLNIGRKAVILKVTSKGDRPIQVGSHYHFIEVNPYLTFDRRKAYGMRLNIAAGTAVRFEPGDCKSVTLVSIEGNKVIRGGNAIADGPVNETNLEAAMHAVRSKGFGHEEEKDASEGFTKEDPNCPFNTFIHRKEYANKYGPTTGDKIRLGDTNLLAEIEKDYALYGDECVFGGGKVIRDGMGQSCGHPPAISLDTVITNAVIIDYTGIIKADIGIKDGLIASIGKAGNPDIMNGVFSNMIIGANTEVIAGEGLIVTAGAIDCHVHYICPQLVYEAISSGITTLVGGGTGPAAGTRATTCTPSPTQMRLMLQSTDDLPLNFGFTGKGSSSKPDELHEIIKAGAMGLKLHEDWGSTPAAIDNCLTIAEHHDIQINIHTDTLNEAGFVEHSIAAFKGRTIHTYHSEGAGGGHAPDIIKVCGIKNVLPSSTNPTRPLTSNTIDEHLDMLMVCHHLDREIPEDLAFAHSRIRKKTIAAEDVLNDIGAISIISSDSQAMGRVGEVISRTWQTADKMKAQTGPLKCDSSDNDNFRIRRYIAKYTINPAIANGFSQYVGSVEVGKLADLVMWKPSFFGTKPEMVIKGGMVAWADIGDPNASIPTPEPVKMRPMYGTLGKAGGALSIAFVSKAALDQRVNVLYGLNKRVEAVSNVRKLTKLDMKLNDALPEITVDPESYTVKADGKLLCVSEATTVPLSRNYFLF

COc1cc2c(cc1OC)-c1cc3ccc(OC)c(OC)c3c[n+]1CC2 [Pal, Palmatine]
Lineweaver-Burk plot raw value (reciprocal velocity) (Pal=0.25 mM, 1/urea 0.0333333): 6.736 and 6.4288 and 6.3593
Lineweaver-Burk plot raw value (reciprocal velocity) (Pal=0.25 mM, 1/urea 0.0666667): 9.843 and 8.358 and 8.117
Lineweaver-Burk plot raw value (reciprocal velocity) (Pal=0.25 mM, 1/urea 0.266667): 12.8949 and 20.429 and 18.9394
Lineweaver-Burk plot raw value (reciprocal velocity) (Pal=0.25 mM, 1/urea 0.533333): 27.5862 and 33.6135 and 34.6021
Lineweaver-Burk plot raw value (reciprocal velocity) (Pal=0.25 mM, 1/urea 1.06667): 85.4701 and 51.1509 and 56.8182
Lineweaver-Burk plot raw value (reciprocal velocity) (Pal=0.50 mM, 1/urea 0.0333333): 6.923 and 7.202 and 9.225
Lineweaver-Burk plot raw value (reciprocal velocity) (Pal=0.50 mM, 1/urea 0.0666667): 8.807 and 9.298 and 11.1669
Lineweaver-Burk plot raw value (reciprocal velocity) (Pal=0.50 mM, 1/urea 0.133333): 18.6916 and 14.9813 and 17.4672
Lineweaver-Burk plot raw value (reciprocal velocity) (Pal=0.50 mM, 1/urea 0.266667): 37.037 and 24.1255 and 22.7273
Lineweaver-Burk plot raw value (reciprocal velocity) (Pal=0.50 mM, 1/urea 0.533333): 57.971 and 34.3053 and 43.4783
Lineweaver-Burk plot raw value (reciprocal velocity) (Pal=1.00 mM, 1/urea 0.0333333): 7.877 and 9.307 and 11.4613
Lineweaver-Burk plot raw value (reciprocal velocity) (Pal=1.00 mM, 1/urea 0.0666667): 11.4679 and 16.2867 and 12.6662
Lineweaver-Burk plot raw value (reciprocal velocity) (Pal=1.00 mM, 1/urea 0.133333): 16.1031 and 22.0507 and 21.7155
Lineweaver-Burk plot raw value (reciprocal velocity) (Pal=1.00 mM, 1/urea 0.266667): 25.0313 and 34.7222 and 40.9836
Lineweaver-Burk plot raw value (reciprocal velocity) (Pal=1.00 mM, 1/urea 0.533333): 40.4858 and 35.0263 and 56.6572
type of urease inhibition (JBU, Lineweaver-Burk): noncompetitive
